From ChEMBL document CHEMBL1201862, “PubChem BioAssay data set” (2004)
Activity calls are given as the source filed them. Cut-off read from the data, not from the text of the source, for most assays here: actives have a measured EC50 and inactives only a lower limit.

How the values were obtained:
[1] = target: Luciferin 4-monooxygenase (Photinus pyralis, UniProt P08659); assay: inhibition of purified Photinus pyralis luciferase – biochemical, luminescence, dose response (AID 1891)
[2] = Luminescence Cell-Based Dose Confirmation HTS to Identify Inhibitors of Platelet Dense Granule Release. [Related pubchem assays: 1663 (Primary HTS), 1678 (Summary of Project)]; assay type: functional
[3] = target: Voltage-dependent T-type calcium channel subunit alpha-1H (Homo sapiens, UniProt O95180); assay type: functional;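 note: channel activity triggered by adding a high calcium stimulation buffer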
Voltage-dependent T-type calcium channel subunit alpha-1H, sequence (O95180 whole entry): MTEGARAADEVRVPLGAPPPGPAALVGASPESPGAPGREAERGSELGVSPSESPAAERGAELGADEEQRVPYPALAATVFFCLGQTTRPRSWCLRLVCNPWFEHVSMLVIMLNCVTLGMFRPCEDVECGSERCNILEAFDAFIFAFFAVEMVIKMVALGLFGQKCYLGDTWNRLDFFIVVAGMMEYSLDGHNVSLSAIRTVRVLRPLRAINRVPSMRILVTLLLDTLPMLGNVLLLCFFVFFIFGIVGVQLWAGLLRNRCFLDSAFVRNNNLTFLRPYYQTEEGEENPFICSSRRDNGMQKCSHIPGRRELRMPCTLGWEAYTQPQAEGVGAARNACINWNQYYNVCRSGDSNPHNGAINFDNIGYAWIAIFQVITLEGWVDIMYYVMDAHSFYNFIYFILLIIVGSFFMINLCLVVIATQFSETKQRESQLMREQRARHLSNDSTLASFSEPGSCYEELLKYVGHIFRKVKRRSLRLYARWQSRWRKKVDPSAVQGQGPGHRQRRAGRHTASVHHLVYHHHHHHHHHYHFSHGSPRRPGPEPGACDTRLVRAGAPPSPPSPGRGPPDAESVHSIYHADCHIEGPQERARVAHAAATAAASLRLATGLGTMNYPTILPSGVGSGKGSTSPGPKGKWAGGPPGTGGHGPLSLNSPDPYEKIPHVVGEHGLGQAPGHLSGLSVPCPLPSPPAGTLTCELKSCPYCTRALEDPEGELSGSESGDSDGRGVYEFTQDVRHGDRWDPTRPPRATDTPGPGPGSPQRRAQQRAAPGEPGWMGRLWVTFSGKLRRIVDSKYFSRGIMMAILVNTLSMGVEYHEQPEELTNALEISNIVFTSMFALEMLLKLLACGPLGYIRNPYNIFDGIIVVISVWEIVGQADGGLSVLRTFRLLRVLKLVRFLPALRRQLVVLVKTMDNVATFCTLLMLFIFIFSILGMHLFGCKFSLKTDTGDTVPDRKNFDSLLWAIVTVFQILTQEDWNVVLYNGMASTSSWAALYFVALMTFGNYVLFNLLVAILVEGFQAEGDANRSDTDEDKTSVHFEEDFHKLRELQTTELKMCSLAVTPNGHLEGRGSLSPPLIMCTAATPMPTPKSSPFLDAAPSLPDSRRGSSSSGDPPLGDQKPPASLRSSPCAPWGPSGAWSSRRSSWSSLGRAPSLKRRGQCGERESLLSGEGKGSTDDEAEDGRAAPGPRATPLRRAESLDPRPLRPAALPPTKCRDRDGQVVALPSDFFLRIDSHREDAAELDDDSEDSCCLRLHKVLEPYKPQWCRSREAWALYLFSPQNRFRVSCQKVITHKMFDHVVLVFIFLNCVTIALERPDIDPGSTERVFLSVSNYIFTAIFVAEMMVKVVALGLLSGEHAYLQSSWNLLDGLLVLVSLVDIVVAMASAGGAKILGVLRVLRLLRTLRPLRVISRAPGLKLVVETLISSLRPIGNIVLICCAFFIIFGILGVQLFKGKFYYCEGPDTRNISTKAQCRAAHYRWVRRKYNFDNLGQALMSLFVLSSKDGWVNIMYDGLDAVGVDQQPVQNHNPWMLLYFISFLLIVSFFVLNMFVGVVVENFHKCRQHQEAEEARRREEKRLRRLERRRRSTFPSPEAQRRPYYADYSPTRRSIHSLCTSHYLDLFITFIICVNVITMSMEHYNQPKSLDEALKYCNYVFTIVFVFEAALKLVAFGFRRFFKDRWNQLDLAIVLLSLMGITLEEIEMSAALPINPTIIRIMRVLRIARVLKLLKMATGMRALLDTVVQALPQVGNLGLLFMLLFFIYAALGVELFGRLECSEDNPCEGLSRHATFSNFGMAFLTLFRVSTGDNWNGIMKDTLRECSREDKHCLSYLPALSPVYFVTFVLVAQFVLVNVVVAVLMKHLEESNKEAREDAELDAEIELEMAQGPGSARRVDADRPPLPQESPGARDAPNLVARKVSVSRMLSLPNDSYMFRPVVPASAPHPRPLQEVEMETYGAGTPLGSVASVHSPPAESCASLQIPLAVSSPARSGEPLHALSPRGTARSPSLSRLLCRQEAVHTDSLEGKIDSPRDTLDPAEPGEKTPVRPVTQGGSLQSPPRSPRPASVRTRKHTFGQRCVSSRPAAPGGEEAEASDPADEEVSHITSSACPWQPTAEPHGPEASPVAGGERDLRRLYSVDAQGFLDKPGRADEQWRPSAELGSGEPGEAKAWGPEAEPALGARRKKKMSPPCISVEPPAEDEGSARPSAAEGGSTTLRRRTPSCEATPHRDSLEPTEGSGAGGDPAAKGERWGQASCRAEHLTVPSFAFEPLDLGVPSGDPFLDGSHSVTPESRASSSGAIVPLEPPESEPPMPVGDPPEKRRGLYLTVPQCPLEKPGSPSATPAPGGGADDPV

Fatty acid synthase [4] = target: T1, Fatty acid synthase (Homo sapiens, UniProt P49327); assay: inhibition of human FAS-TE enzyme activity – biochemical, kinetic fluorescence intensity, dose response (AID 624326); assay type: functional;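 note: rate of fluorescence rise from hydrolysis of a fluorogenic O-methyl fluorescein ester substrate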
T1 sequence (P49327 whole entry): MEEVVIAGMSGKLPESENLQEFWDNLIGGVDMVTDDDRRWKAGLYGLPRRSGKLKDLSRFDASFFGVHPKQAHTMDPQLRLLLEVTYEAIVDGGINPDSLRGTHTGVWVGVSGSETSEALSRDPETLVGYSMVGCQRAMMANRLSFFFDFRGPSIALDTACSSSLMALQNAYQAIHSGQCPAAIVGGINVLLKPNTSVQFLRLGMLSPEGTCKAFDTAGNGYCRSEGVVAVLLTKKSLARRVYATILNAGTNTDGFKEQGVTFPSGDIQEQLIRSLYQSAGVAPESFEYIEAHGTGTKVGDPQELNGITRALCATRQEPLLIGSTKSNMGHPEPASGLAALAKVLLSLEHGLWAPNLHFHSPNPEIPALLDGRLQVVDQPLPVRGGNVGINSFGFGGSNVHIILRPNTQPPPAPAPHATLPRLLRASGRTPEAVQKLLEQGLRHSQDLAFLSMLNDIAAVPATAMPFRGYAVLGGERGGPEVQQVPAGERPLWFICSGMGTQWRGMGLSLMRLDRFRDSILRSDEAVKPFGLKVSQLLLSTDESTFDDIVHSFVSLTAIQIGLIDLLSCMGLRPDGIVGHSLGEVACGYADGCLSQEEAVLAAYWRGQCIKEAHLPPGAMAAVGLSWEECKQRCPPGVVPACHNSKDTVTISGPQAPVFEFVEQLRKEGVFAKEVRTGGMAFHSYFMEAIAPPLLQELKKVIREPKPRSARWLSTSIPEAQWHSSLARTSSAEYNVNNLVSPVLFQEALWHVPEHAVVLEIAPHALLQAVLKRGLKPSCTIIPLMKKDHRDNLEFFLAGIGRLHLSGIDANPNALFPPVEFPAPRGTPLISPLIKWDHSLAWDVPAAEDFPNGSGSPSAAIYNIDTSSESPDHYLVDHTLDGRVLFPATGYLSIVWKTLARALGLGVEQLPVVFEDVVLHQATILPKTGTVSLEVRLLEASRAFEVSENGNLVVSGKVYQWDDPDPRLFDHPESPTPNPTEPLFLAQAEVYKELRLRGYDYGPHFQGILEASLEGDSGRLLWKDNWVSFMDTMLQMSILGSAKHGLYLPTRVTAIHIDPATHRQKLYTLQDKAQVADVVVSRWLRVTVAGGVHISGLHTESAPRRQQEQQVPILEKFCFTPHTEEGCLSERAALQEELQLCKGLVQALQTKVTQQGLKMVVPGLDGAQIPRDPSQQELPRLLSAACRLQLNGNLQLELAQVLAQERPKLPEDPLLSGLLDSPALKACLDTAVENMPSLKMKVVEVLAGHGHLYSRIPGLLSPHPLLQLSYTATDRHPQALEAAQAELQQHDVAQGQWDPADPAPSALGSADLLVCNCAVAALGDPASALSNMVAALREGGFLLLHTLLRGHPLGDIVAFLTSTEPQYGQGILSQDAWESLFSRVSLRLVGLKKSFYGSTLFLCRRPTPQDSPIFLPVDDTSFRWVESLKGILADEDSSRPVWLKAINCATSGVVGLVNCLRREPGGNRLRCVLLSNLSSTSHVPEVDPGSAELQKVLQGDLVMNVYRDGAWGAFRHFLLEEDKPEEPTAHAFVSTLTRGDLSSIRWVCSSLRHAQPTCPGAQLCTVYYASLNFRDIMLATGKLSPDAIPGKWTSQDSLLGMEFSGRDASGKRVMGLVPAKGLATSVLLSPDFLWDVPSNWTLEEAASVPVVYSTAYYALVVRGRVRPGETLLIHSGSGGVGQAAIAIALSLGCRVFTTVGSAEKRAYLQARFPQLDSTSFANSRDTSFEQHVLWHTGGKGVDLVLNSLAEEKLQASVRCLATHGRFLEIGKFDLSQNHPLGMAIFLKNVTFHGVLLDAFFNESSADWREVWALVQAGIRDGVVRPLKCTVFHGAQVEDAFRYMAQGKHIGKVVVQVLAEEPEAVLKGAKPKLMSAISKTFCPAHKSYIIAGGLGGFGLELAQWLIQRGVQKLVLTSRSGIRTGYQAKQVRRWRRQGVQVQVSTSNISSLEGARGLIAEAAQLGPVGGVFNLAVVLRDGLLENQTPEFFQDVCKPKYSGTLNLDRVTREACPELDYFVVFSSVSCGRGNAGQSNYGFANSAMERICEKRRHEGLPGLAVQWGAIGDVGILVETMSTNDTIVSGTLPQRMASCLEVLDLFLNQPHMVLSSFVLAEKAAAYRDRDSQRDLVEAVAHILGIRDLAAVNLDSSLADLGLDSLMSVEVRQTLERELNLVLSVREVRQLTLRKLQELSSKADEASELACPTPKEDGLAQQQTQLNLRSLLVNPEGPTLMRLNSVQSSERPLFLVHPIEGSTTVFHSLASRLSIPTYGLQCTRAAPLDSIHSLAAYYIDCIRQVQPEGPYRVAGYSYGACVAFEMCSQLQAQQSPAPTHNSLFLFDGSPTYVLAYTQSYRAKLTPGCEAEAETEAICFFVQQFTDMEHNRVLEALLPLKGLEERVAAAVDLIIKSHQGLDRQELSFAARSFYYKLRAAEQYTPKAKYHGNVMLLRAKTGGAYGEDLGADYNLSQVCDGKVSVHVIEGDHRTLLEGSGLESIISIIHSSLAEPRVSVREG

Fatty acid synthase [5] = target: T1, Fatty acid synthase; assay: inhibition of human FAS-TE enzyme activity – biochemical, endpoint fluorescence intensity, uHTS hits, dose response (AID 624327); assay type: functional;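 note: fluorescence from hydrolysis of an O-methyl fluorescein acyl ester substrate by the enzyme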
[6] = luciferase reporter signal suppression in cells – H4 neuroglioma cells, luminescence, dose response (AID 1990); assay type: functional, cell-based
[7] = Luminescence Cell-Based Dose Response HTS to Identify Inhibitors of 5'UTR Stem-Loop Driven Prion Protein mRNA Translation in H4 Neuroglioblastoma Cells. [Related pubchem assays: 1827 (Project Summary), 1813 (Primary HTS)]; assay type: functional
[8] = alpha-synuclein stem-loop luciferase translation blockers – H4 neuroglioma cells, luminescence, confirmation (AID 1988); assay type: functional, cell-based
[9] = microbe, parasite or virus in culture; assay type: functional; conditions: Mycobacterium tuberculosis
[10] = target: T2, Mannose-6-phosphate isomerase (Homo sapiens, UniProt P34949); assay: MPI inhibition at elevated mannose 6-phosphate – biochemical, fluorescence intensity, high mannose 6-phosphate, primary screen (AID 1220)
T2 sequence (P34949 whole entry): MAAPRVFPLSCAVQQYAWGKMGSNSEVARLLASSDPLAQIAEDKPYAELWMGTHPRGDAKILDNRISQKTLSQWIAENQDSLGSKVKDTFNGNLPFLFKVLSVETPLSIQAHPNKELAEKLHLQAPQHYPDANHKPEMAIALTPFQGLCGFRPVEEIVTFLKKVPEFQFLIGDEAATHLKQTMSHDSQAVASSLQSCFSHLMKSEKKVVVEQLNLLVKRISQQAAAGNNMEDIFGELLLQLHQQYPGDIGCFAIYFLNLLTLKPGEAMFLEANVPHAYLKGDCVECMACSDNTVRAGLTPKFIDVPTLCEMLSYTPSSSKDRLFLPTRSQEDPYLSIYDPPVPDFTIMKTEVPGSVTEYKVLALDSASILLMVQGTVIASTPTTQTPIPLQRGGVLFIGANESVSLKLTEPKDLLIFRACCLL

[11] = fluconazole-exposed Candida albicans growth modulators – fluorescence, retest, confirmation (AID 2467); assay type: functional, cell-based
H9c2 = assay: cells; assay type: functional, cell-based; conditions: Rattus norvegicus, H9c2, Myocardium
[12] = NIH-3T3 fibroblast cytotoxicity, dose response, cytotoxicity control, cell-based, fluorescence, Alamar Blue, secondary assay (AID 2327); assay type: functional;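 note: NIH-3T3 mouse fibroblasts cultured with fluconazole at 8 µg/mL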
[13] = Trypanosoma cruzi growth suppression in host cells – NIH3T3 host cells, beta-gal luminescence, confirmation (AID 2044); assay type: functional, cell-based;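 note: intracellular parasites grown in NIH/3T3 mouse fibroblasts as host cells; luminescent beta-galactosidase reporter signal from transgenic T. cruzi replicating inside host cells; inhibitors lower the luminescence signal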
[14] = NIH3T3 cell viability loss – ATP luminescence, mouse fibroblasts, counter-screen, dose response (AID 2010); assay type: functional, cell-based;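 note: cells exposed to compound for about 90 hours before reading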
[15] = target: T3, Short transient receptor potential channel 4 (Mus musculus, UniProt Q9QUQ5); assay: block of DAMGO-driven TRPC4 calcium entry – cell-based, HEK293 TRPC4/mu-opioid, Fluo-4 calcium, dose response (AID 434942); assay type: functional;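 note: potency of inhibitors blocking the TRPC4 calcium response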
T3 sequence (Q9QUQ5 whole entry): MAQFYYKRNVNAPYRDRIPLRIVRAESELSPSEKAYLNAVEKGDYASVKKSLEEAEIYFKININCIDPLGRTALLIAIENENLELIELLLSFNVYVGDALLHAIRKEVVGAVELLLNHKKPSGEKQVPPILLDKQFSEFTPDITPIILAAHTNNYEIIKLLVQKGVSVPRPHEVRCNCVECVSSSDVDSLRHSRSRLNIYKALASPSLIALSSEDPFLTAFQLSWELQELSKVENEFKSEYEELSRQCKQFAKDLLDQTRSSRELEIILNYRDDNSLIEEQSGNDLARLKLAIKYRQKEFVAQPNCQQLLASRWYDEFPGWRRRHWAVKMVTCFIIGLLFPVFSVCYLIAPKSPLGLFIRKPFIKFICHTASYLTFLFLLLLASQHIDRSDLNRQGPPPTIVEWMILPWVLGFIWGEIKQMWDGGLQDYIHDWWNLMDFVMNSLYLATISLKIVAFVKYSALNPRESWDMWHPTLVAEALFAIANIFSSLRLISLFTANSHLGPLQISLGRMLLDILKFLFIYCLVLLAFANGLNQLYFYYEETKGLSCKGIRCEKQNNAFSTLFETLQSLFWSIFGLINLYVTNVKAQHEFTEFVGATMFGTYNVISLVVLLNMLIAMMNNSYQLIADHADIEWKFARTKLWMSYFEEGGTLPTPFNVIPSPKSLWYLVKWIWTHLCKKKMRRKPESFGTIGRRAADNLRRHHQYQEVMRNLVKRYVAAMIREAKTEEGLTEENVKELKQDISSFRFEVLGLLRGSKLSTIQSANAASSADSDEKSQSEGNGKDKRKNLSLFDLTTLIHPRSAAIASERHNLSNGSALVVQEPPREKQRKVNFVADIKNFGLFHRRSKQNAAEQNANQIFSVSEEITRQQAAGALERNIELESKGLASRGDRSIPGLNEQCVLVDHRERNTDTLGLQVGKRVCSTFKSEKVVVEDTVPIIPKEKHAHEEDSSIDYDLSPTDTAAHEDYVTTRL

Aminopeptidase N = target: T4, Aminopeptidase N (Plasmodium falciparum FcB1/Columbia, UniProt O96935); assay: malaria alanyl aminopeptidase activity blockers – biochemical, fluorogenic H-Leu-NHMec substrate, 1536-well (AID 1445); set-up: species or system Plasmodium falciparum 3D7, 3D7
T4 sequence (O96935 whole entry): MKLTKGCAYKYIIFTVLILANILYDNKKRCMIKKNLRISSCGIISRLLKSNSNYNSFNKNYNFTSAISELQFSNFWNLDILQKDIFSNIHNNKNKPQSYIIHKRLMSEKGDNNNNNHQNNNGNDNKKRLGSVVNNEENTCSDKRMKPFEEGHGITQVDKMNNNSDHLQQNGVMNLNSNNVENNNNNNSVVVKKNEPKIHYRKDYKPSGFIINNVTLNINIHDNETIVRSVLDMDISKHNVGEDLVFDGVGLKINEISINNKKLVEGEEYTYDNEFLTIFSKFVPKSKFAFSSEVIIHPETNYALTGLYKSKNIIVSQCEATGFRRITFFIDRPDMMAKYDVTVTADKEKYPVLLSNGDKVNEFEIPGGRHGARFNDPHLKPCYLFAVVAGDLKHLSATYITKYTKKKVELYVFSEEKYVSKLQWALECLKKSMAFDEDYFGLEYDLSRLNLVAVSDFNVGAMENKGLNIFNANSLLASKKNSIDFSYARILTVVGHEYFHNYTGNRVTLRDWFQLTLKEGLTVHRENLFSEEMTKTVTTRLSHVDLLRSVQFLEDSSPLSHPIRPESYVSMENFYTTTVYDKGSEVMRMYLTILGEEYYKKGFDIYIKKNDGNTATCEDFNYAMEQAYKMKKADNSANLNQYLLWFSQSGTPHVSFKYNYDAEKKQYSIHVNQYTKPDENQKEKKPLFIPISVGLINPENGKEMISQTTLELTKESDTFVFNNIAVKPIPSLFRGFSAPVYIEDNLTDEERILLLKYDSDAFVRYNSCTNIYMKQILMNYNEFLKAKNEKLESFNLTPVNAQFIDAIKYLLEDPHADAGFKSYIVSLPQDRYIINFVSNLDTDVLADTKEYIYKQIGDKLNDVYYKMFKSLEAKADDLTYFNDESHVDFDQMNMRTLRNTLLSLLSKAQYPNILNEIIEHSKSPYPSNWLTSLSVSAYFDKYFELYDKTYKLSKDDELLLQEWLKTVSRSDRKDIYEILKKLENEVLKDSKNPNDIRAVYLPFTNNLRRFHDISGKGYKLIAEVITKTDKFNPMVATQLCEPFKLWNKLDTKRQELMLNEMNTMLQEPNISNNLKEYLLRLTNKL

BJ [16] = assay: BJ-TERT fibroblast viability loss – cell-based, RAS-independent, luminescence, dose response (AID 1933); assay type: functional; conditions: Homo sapiens
BJ [17] = assay: cells; assay type: functional, cell-based; conditions: Homo sapiens
[18] = DRD fibroblast viability loss – cell-based, non-viral oncogenic, luminescence, dose response (AID 1934); assay type: functional; conditions: Homo sapiens
BJ [19] = assay: BJ-TERT-LT-ST fibroblast viability loss – cell-based, RAS-independent, luminescence, dose response (AID 1935); assay type: functional; conditions: Homo sapiens;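 note: BJ fibroblasts immortalized with TERT plus LT and ST oncogenes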

## CCOC(=O)N1CCN(Cc2cc(=O)oc3cc4c(cc23)CCC4)CC1
[1]
  EC50: > 112 µM (not active)
[2]
  EC50: > 112 µM (not active)

## Cc1cc(C)c(NC(=O)C(C)c2cccc(C(=O)c3ccccc3)c2)c(C)c1 (stereo not given)
[3]
  EC50: 3.26 µM (active)

## O=C(N/C(=C/C=C\c1ccccc1)C(=O)N1CCOCC1)c1ccc(Br)cc1
Fatty acid synthase [4]
  IC50: 7.63 µM (active)
Fatty acid synthase [5]
  IC50: 7.92 µM (active)
[6]
  EC50: > 120 µM (not active)
[7]
  EC50: > 120 µM (not active)
[8]
  EC50: > 120 µM (not active)

## Cc1ccc(NCc2ccc(O)c3ncccc23)cc1C
[9]
  CC50: 33.9 µM (active)
[10]
  IC50: > 50 µM (not active)
[11]
  EC50: > 38 µM (not active)
H9c2
  IC50: > 79 µM (inactive)
[12]
  EC50: > 160 µM (inconclusive)

## CS(=O)(=O)N1CCc2cc(-c3csc(NC(=O)Cc4ccccc4)n3)ccc21
[13]
  EC50: 1.08 µM (active)
Fatty acid synthase [4]
  IC50: 5.12 µM (active)
[14]
  EC50: > 60 µM (not active)
Fatty acid synthase [5]
  IC50: 8.79 µM (active)
[6]
  EC50: > 120 µM (not active)
[7]
  EC50: 20.9 µM (active)
[8]
  EC50: > 120 µM (not active)

## COc1ccc(OC)c(CN2CCCC(C(=O)c3sccc3C)C2)c1 (stereo not given)
[15]
  EC50: 1.88 µM (active)

## CC1(C)CC(=O)c2c(oc3ccc(NS(=O)(=O)c4ccc(C(=O)O)cc4)cc23)C1
Aminopeptidase N
  IC50: 26 µM (active)

## OC[C@H]1O[C@@H](n2cnc3c(NCCc4ccccc4)ncnc32)[C@H](O)[C@@H]1O
[1]
  EC50: > 112 µM (not active)
[2]
  EC50: 0.893 µM (active)
BJ [16]
  EC50: 15.2 µM (inconclusive)
BJ [17]
  EC50: 35.4 µM (active)
[18]
  EC50: 18.9 µM (active)
BJ [19]
  EC50: > 150 µM (not active)

## Cc1snc(S(=O)(=O)/C(C#N)=N/Nc2cccc(C(F)(F)F)c2)c1C#N
[3]
  EC50: 7.53 µM (active)

## CCOC(=O)C1(Cc2ccccc2C)CCCN(Cc2ccc(NC(C)=O)cc2)C1 (stereo not given)
[15]
  EC50: 3.35 µM (active)
